TGI data for 15 compounds are collected here from PubChem BioAssay (NCI).

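The compound was tested at five concentrations on cells cultured in 96-well plates, with a 48-hour exposure period. TGI: total growth inhibition.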 A value given as a limit tells only on which side of the number the result lay.

Among the test systems are SF-539 CNS; SNB-19 CNS; SF-268 CNS; DU-145 prostate; TK-10 renal; COLO 205 colon; SR leukemia; CAKI-1 renal; NCI/ADR-RES ovarian; OVCAR-4 ovarian; SF-295 CNS.
Holding throughout (test): NCI anticancer screen, dose series, 48 h

As for `CC1CCCc2c(-c3ccc(Cl)cc3)nc(N)c(C#N)c21` (centres undefined), the TGI in the assay on SF-539 CNS is 92.3 µM; with SNB-19 CNS it was more than 100 µM; in the assay with SF-268 CNS, more than 100 µM; in the assay on DU-145 prostate, more than 100 µM; in the assay with TK-10 renal it was more than 100 µM; in the assay with COLO 205 colon, 48.3 µM. Also, the TGI is 40.5 µM in the assay on SR leukemia, more than 100 µM in the assay on CAKI-1 renal and 71.3 µM in the assay on NCI/ADR-RES ovarian.
Consider `CCN(CC)CCCCC1CCN(CC(=O)N2c3ccccc3NC(=O)c3ccccc32)CC1`, for which the TGI in the assay with SF-539 CNS, with SNB-19 CNS, in the assay on SF-268 CNS, with TK-10 renal, with COLO 205 colon and with SR leukemia was more than 100 µM throughout. The TGI in the assay with CAKI-1 renal, in the assay on OVCAR-4 ovarian and in the assay with SF-295 CNS was more than 100 µM throughout.
As for `CC(C)=CCC/C(C)=C/Cc1cc(/C=C/c2cc(O)c(CC=C(C)C)c(O)c2)cc(O)c1O`, the TGI came to 13.8 µM in the assay on SF-539 CNS; 16.6 µM in the assay on SNB-19 CNS; 12.3 µM in the assay with SF-268 CNS; 26.6 µM in the assay on DU-145 prostate; 14.2 µM in the assay with TK-10 renal; 33.4 µM in the assay on COLO 205 colon. In addition, the TGI in the assay with CAKI-1 renal came out at 16.9 µM; with OVCAR-4 ovarian it was 7.1 µM; in the assay on NCI/ADR-RES ovarian, 13.3 µM; in the assay on SF-295 CNS it was 18.2 µM.
Consider `C1=CCN(c2ccccc2)CC1`, for which the TGI in the assay on SF-539 CNS, in the assay on SNB-19 CNS, in the assay with SF-268 CNS, with TK-10 renal, in the assay on COLO 205 colon and in the assay on SR leukemia was more than 100 µM in each case. The same compound came in with a TGI with SF-295 CNS of more than 100 µM.
Consider `CCCOC(=O)c1cc(C(=CCC[C@H]2CC[C@@]3(C)[C@@H](CC[C@@H]4[C@@H]3CC[C@]3(C)[C@@H](C(C)CCCC(C)C)CC[C@@H]43)C2)c2cc(Cl)c(O)c(C(=O)OCCC)c2)cc(Cl)c1O` (some centres undefined), for which the TGI in the assay on SNB-19 CNS, in the assay with SF-268 CNS, in the assay on DU-145 prostate, in the assay with COLO 205 colon, in the assay with CAKI-1 renal and with OVCAR-4 ovarian was more than 50 µM throughout. The compound also registered a TGI with NCI/ADR-RES ovarian of more than 50 µM.
Turning to `Fc1ccc(C(OCCN2CCC3CCC(C2)N3CCCc2ccccc2)c2ccc(F)cc2)cc1` (centres undefined), the TGI is 2.82 µM in the assay with SF-539 CNS; 22.3 µM in the assay with SNB-19 CNS; 19.8 µM with SF-268 CNS; 22.8 µM in the assay on DU-145 prostate; 15.7 µM in the assay on TK-10 renal; 2.67 µM with COLO 205 colon. Moreover, the TGI was 18.3 µM in the assay with CAKI-1 renal, 22.3 µM in the assay with OVCAR-4 ovarian, 13.7 µM in the assay with NCI/ADR-RES ovarian and 8.45 µM with SF-295 CNS.
With `COc1ccccc1NC(=O)C(C#N)=C(SC)SC`, the TGI in the assay on SF-539 CNS, with SNB-19 CNS, in the assay on SF-268 CNS, in the assay with DU-145 prostate, in the assay on TK-10 renal and in the assay on COLO 205 colon was more than 100 µM each time. Further, the TGI with SR leukemia, in the assay with CAKI-1 renal, with OVCAR-4 ovarian and in the assay on SF-295 CNS was more than 100 µM in each case.
As for `Nc1ccc(N=Nc2ccc(/C=C/c3ccc(N=Nc4ccc(N)c5ccc(S(=O)(=O)O)cc45)cc3S(=O)(=O)O)c(S(=O)(=O)O)c2)c2cc(S(=O)(=O)O)ccc12`, the TGI with SF-539 CNS, in the assay with SNB-19 CNS, in the assay on SF-268 CNS, with COLO 205 colon, with OVCAR-4 ovarian and in the assay with NCI/ADR-RES ovarian was more than 100 µM each time. Moreover, in the assay on SF-295 CNS, the TGI was more than 100 µM.
Take `CC(SC1=CC(=O)c2c(Cl)ccc(O)c2C1=O)C(=O)O` (centres undefined): the TGI was found to be 32.8 µM in the assay with SF-539 CNS; 44.2 µM in the assay with SF-268 CNS; 35.3 µM with TK-10 renal; 45.1 µM with COLO 205 colon; 37.9 µM in the assay with SR leukemia; 33.3 µM with SF-295 CNS.
`N#Cc1c(-c2ccccc2)c(C#N)c(=O)n(NS(=O)(=O)c2ccccc2)c1O`: the TGI in the assay on SF-539 CNS, in the assay on SNB-19 CNS, in the assay with SF-268 CNS, in the assay with TK-10 renal, in the assay on COLO 205 colon and in the assay on CAKI-1 renal was more than 100 µM each time. The TGI with OVCAR-4 ovarian, with NCI/ADR-RES ovarian and with SF-295 CNS was more than 100 µM throughout.
Consider `CC(C#N)Nc1ccc(Oc2ccc(C(C)(C)c3ccc(Oc4ccc(NC(C)C#N)cc4)cc3)cc2)cc1` (centres undefined), for which the TGI in the assay on SF-539 CNS, in the assay on SNB-19 CNS, with SF-268 CNS, in the assay with TK-10 renal, with COLO 205 colon and in the assay with CAKI-1 renal was more than 100 µM in each case. The TGI with OVCAR-4 ovarian, with NCI/ADR-RES ovarian and in the assay on SF-295 CNS was more than 100 µM each time.
As to `C/C(C=O)=C1\C(O)C[C@]1(C)C1CC(C)(C)CC1O` (some centres undefined), the TGI with SF-539 CNS, in the assay on SNB-19 CNS, with SF-268 CNS, with TK-10 renal, in the assay with COLO 205 colon and in the assay with SR leukemia was more than 100 µM throughout. The results for the TGI in the assay on CAKI-1 renal, in the assay on OVCAR-4 ovarian and in the assay with SF-295 CNS were more than 100 µM, 93.9 µM and more than 100 µM, respectively.
For `CCc1cc(Cc2cc(CC)c(NC(=O)C3=CC(=O)CC(c4ccc(OC)cc4)O3)c(CC)c2Cl)c(Cl)c(CC)c1NC(=O)C1=CC(=O)CC(c2ccc(OC)cc2)O1` (centres undefined), the TGI in the assay with SF-539 CNS came to 38.9 µM; in the assay on SNB-19 CNS it was 42.7 µM; with SF-268 CNS, 58.2 µM; with TK-10 renal, 51.7 µM; in the assay on COLO 205 colon it was 31.6 µM; in the assay with SR leukemia it was 59.2 µM. Moreover, the TGI stood at 65.8 µM with CAKI-1 renal, 54.8 µM with OVCAR-4 ovarian and 38.7 µM with SF-295 CNS.
As to `Cc1ccc(S(=O)(=O)N/N=C2\C(=O)C3CC2C(Cl)C3Cl)cc1` (centres undefined), the TGI in the assay with SNB-19 CNS, in the assay on SF-268 CNS, in the assay on TK-10 renal, with COLO 205 colon, in the assay with SR leukemia and with CAKI-1 renal was more than 100 µM each time. Further, the TGI in the assay on OVCAR-4 ovarian and in the assay on SF-295 CNS was more than 100 µM each time.
Take `Cc1[nH]c2ncn(/N=C/c3ccccc3)c(=N)c2c1Cc1ccccc1`: the TGI with SF-539 CNS, in the assay on SNB-19 CNS, with SF-268 CNS, in the assay on DU-145 prostate, in the assay with TK-10 renal and in the assay on COLO 205 colon was more than 100 µM in each case. The TGI in the assay on CAKI-1 renal, with OVCAR-4 ovarian, in the assay on NCI/ADR-RES ovarian and with SF-295 CNS was more than 100 µM in each case.
